Experimental data published in patent US9649309B2 (priority 2014, dated 2017).

What was measured:
[1] = molecular target: Tyro3 (Homo sapiens (Human), UniProt Q06418); experiment: biochemical
[2] = molecular target: Axl (Homo sapiens (Human), UniProt P30530); experiment: biochemical
Sequence of Axl (P30530 26-894 limits assumed): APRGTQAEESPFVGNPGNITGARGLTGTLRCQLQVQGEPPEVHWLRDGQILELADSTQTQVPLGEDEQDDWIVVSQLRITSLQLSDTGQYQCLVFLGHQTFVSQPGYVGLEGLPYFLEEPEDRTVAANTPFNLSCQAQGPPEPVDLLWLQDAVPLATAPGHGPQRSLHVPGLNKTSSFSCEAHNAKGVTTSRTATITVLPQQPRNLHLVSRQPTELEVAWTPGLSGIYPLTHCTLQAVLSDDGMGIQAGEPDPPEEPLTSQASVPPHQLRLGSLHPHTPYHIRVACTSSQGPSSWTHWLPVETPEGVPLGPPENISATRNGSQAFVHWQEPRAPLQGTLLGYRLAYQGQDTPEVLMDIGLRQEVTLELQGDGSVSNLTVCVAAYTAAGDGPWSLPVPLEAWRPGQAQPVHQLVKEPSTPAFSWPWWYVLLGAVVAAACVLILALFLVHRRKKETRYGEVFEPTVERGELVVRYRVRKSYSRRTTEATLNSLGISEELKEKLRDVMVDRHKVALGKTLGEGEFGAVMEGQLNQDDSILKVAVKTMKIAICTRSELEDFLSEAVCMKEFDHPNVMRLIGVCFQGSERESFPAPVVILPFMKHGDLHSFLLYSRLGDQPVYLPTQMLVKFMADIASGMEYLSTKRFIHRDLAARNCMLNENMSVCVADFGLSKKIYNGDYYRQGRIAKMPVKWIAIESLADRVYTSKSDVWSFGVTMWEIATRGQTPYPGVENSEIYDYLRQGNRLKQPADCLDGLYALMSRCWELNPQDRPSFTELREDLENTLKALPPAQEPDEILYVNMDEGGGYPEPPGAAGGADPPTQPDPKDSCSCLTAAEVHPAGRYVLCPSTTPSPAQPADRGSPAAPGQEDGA

Sequence of Tyro3 (Q06418 41-890 limits assumed): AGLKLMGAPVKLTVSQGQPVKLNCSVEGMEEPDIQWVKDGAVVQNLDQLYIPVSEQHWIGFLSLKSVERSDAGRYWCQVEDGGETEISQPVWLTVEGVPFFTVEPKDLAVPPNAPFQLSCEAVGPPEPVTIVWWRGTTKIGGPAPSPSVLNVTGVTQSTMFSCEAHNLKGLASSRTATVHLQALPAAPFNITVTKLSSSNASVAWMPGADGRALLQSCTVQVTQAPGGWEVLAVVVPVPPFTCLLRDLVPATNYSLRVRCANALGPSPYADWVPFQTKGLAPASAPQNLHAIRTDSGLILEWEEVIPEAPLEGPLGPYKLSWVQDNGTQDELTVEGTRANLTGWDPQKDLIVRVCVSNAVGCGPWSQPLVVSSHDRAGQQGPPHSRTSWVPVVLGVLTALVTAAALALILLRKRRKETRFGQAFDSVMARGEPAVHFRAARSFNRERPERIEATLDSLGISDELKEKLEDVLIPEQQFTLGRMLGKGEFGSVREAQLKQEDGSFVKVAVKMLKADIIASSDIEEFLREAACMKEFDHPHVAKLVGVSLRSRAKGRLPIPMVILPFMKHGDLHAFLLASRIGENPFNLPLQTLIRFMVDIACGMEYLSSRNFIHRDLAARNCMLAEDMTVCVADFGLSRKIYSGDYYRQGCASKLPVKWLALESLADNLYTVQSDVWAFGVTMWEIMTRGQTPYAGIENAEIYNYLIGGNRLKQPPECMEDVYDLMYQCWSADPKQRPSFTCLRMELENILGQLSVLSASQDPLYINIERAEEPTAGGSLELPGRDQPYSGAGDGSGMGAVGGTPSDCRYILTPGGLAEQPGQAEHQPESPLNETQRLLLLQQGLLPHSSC

Structure (SMILES)	IC50 [1] [nM]	IC50 [2] [nM]
CCCCNc1ncc(C(=O)NCC2CCN(C3CCCC3)CC2)c(N[C@H]2CC[C@H](O)CC2)n1 [UNC2743A]	84	166
CCCCNc1ncc(C(=O)NC2CC(C)(C)N(C)C(C)(C)C2)c(N[C@H]2CC[C@H](O)CC2)n1 [UNC2695A]	76	233
CCCCNc1ncc(-c2ccc(F)cn2)c(NC[C@H]2CC[C@H](N)CC2)n1 [UNC3021A]	114	621
CCCCNc1ncc(C(=O)NCc2ccc(CN3CCOCC3)cc2)c(N[C@H]2CC[C@H](O)CC2)n1 [UNC2735A]	145	189
CCCCNc1ncc(-c2cccc(CN3CCN(C)CC3)n2)c(N[C@H]2CC[C@H](O)CC2)n1 [UNC2622A]	162	296
CCCCNc1ncc(-c2cc(NC3CCCCC3)ncn2)c(N[C@H]2CC[C@H](O)CC2)n1 [UNC3194A]	239	260
CCCCNc1ncc(-c2ccc(CCCN3CCN(C)CC3)cn2)c(N[C@H]2CC[C@H](O)CC2)n1 [UNC2792A]	75	191
CCCCNc1ncc(-c2ccc(CNCc3ccccc3)cn2)c(N[C@H]2CC[C@H](O)CC2)n1 [UNC2572A]	43	136
CCCCNc1ncc(-c2cc(NC(C)(C)C)ncn2)c(N[C@H]2CC[C@H](O)CC2)n1 [UNC3200A]	259	480
CCCCNc1ncc(-c2ccc(C(=O)NC3CCN(C)CC3)o2)c(N[C@H]2CC[C@H](O)CC2)n1 [UNC3181A]	507	1030
CCCCNc1ncc(-c2ccc(CN3CCCN(C)CC3)cn2)c(N[C@H]2CC[C@H](O)CC2)n1 [UNC2405A]	98	183
CCCCNc1ncc(-c2ccc(CN3CCOCC3)o2)c(N[C@H]2CC[C@H](O)CC2)n1 [UNC2898A]	374	2550
CCCCNc1ncc(-c2cc(N3CCOCC3)ncn2)c(N[C@H]2CC[C@H](O)CC2)n1 [UNC3196A]	1000	2130
CCCCNc1ncc(C(=O)NC2CCCCCC2)c(N[C@H]2CC[C@H](O)CC2)n1 [UNC2734A]	505	665
CCCCNc1ncc(-c2ccc3ccccc3n2)c(N[C@H]2CC[C@H](O)CC2)n1 [UNC2860A]	755	30000
CCCCNc1ncc(-c2ccc(C(=O)N(C)C3CCN(C)CC3)cn2)c(N[C@H]2CC[C@H](O)CC2)n1 [UNC2915A]	6.5	49
CCCCNc1ncc(C(=O)NCc2ccncc2)c(N[C@H]2CC[C@H](O)CC2)n1 [UNC1849A]	1740	1260
CCCCNc1ncc(-c2cc(N3CCN(C)CC3)ncn2)c(N[C@H]2CC[C@H](O)CC2)n1 [UNC3197A]	1170	1680
CCCCNc1ncc(-c2ccc(CNCc3ccncc3)cn2)c(N[C@H]2CC[C@H](O)CC2)n1 [UNC2571A]	18	44
CCCCNc1ncc(-c2ncc(CN3CCCC3)s2)c(N[C@H]2CC[C@H](O)CC2)n1 [UNC4223A]	14	29
CCCCNc1ncc(-c2ccc(CN3CCCC3)cn2)c(N[C@H]2CC[C@H](O)CC2)n1 [UNC2490A]	18	36
CCCCNc1ncc(C(=O)NC2CCN(C3CCN(C)CC3)CC2)c(N[C@H]2CC[C@H](O)CC2)n1 [UNC2698A]	43	175
CCCCNc1ncc(-c2ccc(CNCC3CC3)cn2)c(N[C@H]2CC[C@H](O)CC2)n1 [UNC2547A]	11	30
CCCCNc1ncc(C(=O)Nc2ccc(CCO)cc2)c(N[C@H]2CC[C@H](O)CC2)n1 [UNC1846A]	1070	1190
CCCCCNc1cc(-c2cnc(NCCCC)nc2N[C@H]2CC[C@H](O)CC2)ncn1 [UNC3201A]	195	112
CCCCNc1ncc(-c2cnccn2)c(N[C@H]2CC[C@H](O)CC2)n1 [UNC2794A]	158	604
CCCCNc1ncc(C(=O)NCCc2ccc(F)cc2)c(N[C@H]2CC[C@H](O)CC2)n1 [UNC1850A]	1210	1640
